Test results reported in patent publication US8067454B2, “Thio-substituted Anthra [1, 2-d] imidazole- 6, 11-dione derivatives, preparation method and application thereof” (National Defense Medical Center, priority 2010, dated 2011).

Tests used:
[1] = tested on: MALME-3M; experiment: NCI 60-cell drug screen, Melanoma MALME-3M; type: cell-based, human; settings: 1.00E−5 Molar
[2] = tested on: SK-MEL-2; experiment: NCI 60-cell drug screen, Melanoma SK-MEL-2; type: cell-based, human; settings: 1.00E−5 Molar
[3] = tested on: HCC-2998; experiment: NCI 60-cell drug screen, Colon Cancer HCC-2998; type: cell-based, human; settings: 1.00E−5 Molar
[4] = tested on: NCI-H226; experiment: NCI 60-cell drug screen, Non-Small Cell Lung Cancer NCI-H226; type: cell-based, human; settings: 1.00E−5 Molar
[5] = tested on: COLO 205; experiment: NCI 60-cell drug screen, Colon Cancer COLO 205; type: cell-based, human; settings: 1.00E−5 Molar
[6] = tested on: OVCAR-4; experiment: NCI 60-cell drug screen, Ovarian Cancer OVCAR-4; type: cell-based, human; settings: 1.00E−5 Molar
[7] = tested on: SF-539; experiment: NCI 60-cell drug screen, CNS Cancer SF-539; type: cell-based, human; settings: 1.00E−5 Molar
[8] = tested on: HL-60(TB); experiment: NCI 60-cell drug screen, Leukemia HL-60(TB); type: cell-based, human; settings: 1.00E−5 Molar
[9] = tested on: U251; experiment: NCI 60-cell drug screen, CNS Cancer U251; type: cell-based, human; settings: 1.00E−5 Molar
[10] = tested on: CCRF-CEM; experiment: NCI 60-cell drug screen, Leukemia CCRF-CEM; type: cell-based, human; settings: 1.00E−5 Molar
[11] = tested on: HCT-15; experiment: NCI 60-cell drug screen, Colon Cancer HCT-15; type: cell-based, human; settings: 1.00E−5 Molar
[12] = tested on: SNB-75; experiment: NCI 60-cell drug screen, CNS Cancer SNB-75; type: cell-based, human; settings: 1.00E−5 Molar
[13] = tested on: BT-549; experiment: NCI 60-cell drug screen, Breast Cancer BT-549; type: cell-based, human; settings: 1.00E−5 Molar
[14] = tested on: TK-10; experiment: NCI 60-cell drug screen, Renal Cancer TK-10; type: cell-based, human; settings: 1.00E−5 Molar
[15] = tested on: NCI-H23; experiment: NCI 60-cell drug screen, Non-Small Cell Lung Cancer NCI-H23; type: cell-based, human; settings: 1.00E−5 Molar
[16] = tested on: EKVX; experiment: NCI 60-cell drug screen, Non-Small Cell Lung Cancer EKVX; type: cell-based, human; settings: 1.00E−5 Molar
[17] = tested on: RPMI-8226; experiment: NCI 60-cell drug screen, Leukemia RPMI-8226; type: cell-based, human; settings: 1.00E−5 Molar
[18] = tested on: K-562; experiment: NCI 60-cell drug screen, Leukemia K-562; type: cell-based, human; settings: 1.00E−5 Molar
[19] = tested on: SK-OV-3; experiment: NCI 60-cell drug screen, Ovarian Cancer SK-OV-3; type: cell-based, human; settings: 1.00E−5 Molar
[20] = tested on: MCF7; experiment: NCI 60-cell drug screen, Breast Cancer MCF7; type: cell-based, human; settings: 1.00E−5 Molar
[21] = tested on: SVG p12; experiment: MTT assay, SVG p12 normal cell; settings: concentration 10 μM, normal cell
[22] = tested on: SR; experiment: NCI 60-cell drug screen, Leukemia SR; type: cell-based, human; settings: 1.00E−5 Molar
[23] = tested on: UACC-62; experiment: NCI 60-cell drug screen, Melanoma UACC-62; type: cell-based, human; settings: 1.00E−5 Molar
[24] = tested on: GBM8401; experiment: MTT assay, GBM8401 tumor cell; settings: concentration 10 μM, tumor cell
[25] = tested on: KM12; experiment: NCI 60-cell drug screen, Colon Cancer KM12; type: cell-based, human; settings: 1.00E−5 Molar
[26] = tested on: A498; experiment: NCI 60-cell drug screen, Renal Cancer A498; type: cell-based, human; settings: 1.00E−5 Molar
[27] = tested on: SF-295; experiment: NCI 60-cell drug screen, CNS Cancer SF-295; type: cell-based, human; settings: 1.00E−5 Molar
[28] = tested on: M14; experiment: NCI 60-cell drug screen, Melanoma M14; type: cell-based, human; settings: 1.00E−5 Molar
[29] = tested on: SNB-19; experiment: NCI 60-cell drug screen, CNS Cancer SNB-19; type: cell-based, human; settings: 1.00E−5 Molar
[30] = tested on: NCI-H460; experiment: NCI 60-cell drug screen, Non-Small Cell Lung Cancer NCI-H460; type: cell-based, human; settings: 1.00E−5 Molar
[31] = tested on: GBM8901; experiment: MTT assay, GBM8901 tumor cell; settings: concentration 10 μM, tumor cell
[32] = tested on: SK-MEL-5; experiment: NCI 60-cell drug screen, Melanoma SK-MEL-5; type: cell-based, human; settings: 1.00E−5 Molar
[33] = tested on: OVCAR-5; experiment: NCI 60-cell drug screen, Ovarian Cancer OVCAR-5; type: cell-based, human; settings: 1.00E−5 Molar
[34] = tested on: PC-3; experiment: NCI 60-cell drug screen, Prostate Cancer PC-3; type: cell-based, human; settings: 1.00E−5 Molar
[35] = tested on: IGROV1; experiment: NCI 60-cell drug screen, Ovarian Cancer IGROV1; type: cell-based, human; settings: 1.00E−5 Molar
[36] = tested on: ACHN; experiment: NCI 60-cell drug screen, Renal Cancer ACHN; type: cell-based, human; settings: 1.00E−5 Molar
[37] = tested on: 786-0; experiment: NCI 60-cell drug screen, Renal Cancer 786-0; type: cell-based, human; settings: 1.00E−5 Molar
[38] = tested on: A549/ATCC; experiment: NCI 60-cell drug screen, Non-Small Cell Lung Cancer A549/ATCC; type: cell-based, human; settings: 1.00E−5 Molar
[39] = tested on: OVCAR-8; experiment: NCI 60-cell drug screen, Ovarian Cancer OVCAR-8; type: cell-based, human; settings: 1.00E−5 Molar
[40] = tested on: LOX IMVI; experiment: NCI 60-cell drug screen, Melanoma LOX IMVI; type: cell-based, human; settings: 1.00E−5 Molar
[41] = tested on: HCT-116; experiment: NCI 60-cell drug screen, Colon Cancer HCT-116; type: cell-based, human; settings: 1.00E−5 Molar
[42] = tested on: 60 kinds of different human cancer cells; experiment: NCI 60-cell drug screen, whole panel (One Dose Mean Graph); type: cell-based; settings: mean over the cell lines of the panel; 1.00E−5 Molar
[43] = tested on: T-47D; experiment: NCI 60-cell drug screen, Breast Cancer T-47D; type: cell-based, human; settings: 1.00E−5 Molar
[44] = tested on: MOLT-4; experiment: NCI 60-cell drug screen, Leukemia MOLT-4; type: cell-based, human; settings: 1.00E−5 Molar
[45] = tested on: NCI-H322M; experiment: NCI 60-cell drug screen, Non-Small Cell Lung Cancer NCI-H322M; type: cell-based, human; settings: 1.00E−5 Molar
[46] = tested on: HOP-62; experiment: NCI 60-cell drug screen, Non-Small Cell Lung Cancer HOP-62; type: cell-based, human; settings: 1.00E−5 Molar
[47] = tested on: MDA-MB-231/ATCC; experiment: NCI 60-cell drug screen, Breast Cancer MDA-MB-231/ATCC; type: cell-based, human; settings: 1.00E−5 Molar
[48] = tested on: SW-620; experiment: NCI 60-cell drug screen, Colon Cancer SW-620; type: cell-based, human; settings: 1.00E−5 Molar
[49] = tested on: SK-MEL-28; experiment: NCI 60-cell drug screen, Melanoma SK-MEL-28; type: cell-based, human; settings: 1.00E−5 Molar
[50] = tested on: RXF 393; experiment: NCI 60-cell drug screen, Renal Cancer RXF 393; type: cell-based, human; settings: 1.00E−5 Molar
[51] = tested on: NCI-H522; experiment: NCI 60-cell drug screen, Non-Small Cell Lung Cancer NCI-H522; type: cell-based, human; settings: 1.00E−5 Molar
[52] = tested on: UO-31; experiment: NCI 60-cell drug screen, Renal Cancer UO-31; type: cell-based, human; settings: 1.00E−5 Molar

SMILES: CN(C)CCCSc1nc2ccc3c(c2[nH]1)C(=O)c1ccccc1C3=O [f1-15, 2-(3-(dimethylamino)propylthio)-1H-anthra[1,2-d]imidazole-6,11-dione]
- Growth Percent, MALME-3M [1]: 88.23%
- Growth Percent, SK-MEL-2 [2]: 80.03%
- Growth Percent, HCC-2998 [3]: 72.67%
- Growth Percent, NCI-H226 [4]: 74.10%
- Growth Percent, COLO 205 [5]: 62.01%
- Growth Percent, OVCAR-4 [6]: 29.72%
- Growth Percent, SF-539 [7]: 57.50%
- Growth Percent, HL-60(TB) [8]: 12.74%
- Growth Percent, U251 [9]: 74.11%
- Growth Percent, CCRF-CEM [10]: 8.49%
- Growth Percent, HCT-15 [11]: 36.27%
- Growth Percent, SNB-75 [12]: 50.54%
- Growth Percent, BT-549 [13]: 75.75%
- Growth Percent, TK-10 [14]: 31.68%
- Growth Percent, NCI-H23 [15]: 53.83%
- Growth Percent, EKVX [16]: 65.23%
- Growth Percent, RPMI-8226 [17]: −13.69%
- Growth Percent, K-562 [18]: −31.59%
- Growth Percent, SK-OV-3 [19]: 32.36%
- Growth Percent, MCF7 [20]: 16.92%
- Cell survival rate (%) SVG p12 [21]: 11 ± 6%
- Growth Percent, SR [22]: 3.09%
- Growth Percent, UACC-62 [23]: 75.39%
- Cell survival rate (%) GBM8401 [24]: 8 ± 11%
- Growth Percent, KM12 [25]: 20.36%
- Growth Percent, A498 [26]: 76.16%
- Growth Percent, SF-295 [27]: 76.03%
- Growth Percent, M14 [28]: 77.32%
- Growth Percent, SNB-19 [29]: 79.67%
- Growth Percent, NCI-H460 [30]: 23.20%
- Cell survival rate (%) GBM8901 [31]: 63 ± 4%
- Growth Percent, SK-MEL-5 [32]: 62.55%
- Growth Percent, OVCAR-5 [33]: 87.88%
- Growth Percent, PC-3 [34]: 36.71%
- Growth Percent, IGROV1 [35]: 30.89%
- Growth Percent, ACHN [36]: 24.30%
- Growth Percent, 786-0 [37]: 77.63%
- Growth Percent, A549/ATCC [38]: 51.59%
- Growth Percent, OVCAR-8 [39]: 61.89%
- Growth Percent, LOX IMVI [40]: 28.57%
- Growth Percent, HCT-116 [41]: 27.58%
- Growth Percent, Mean [42]: 47.41%
- Growth Percent, T-47D [43]: 45.78%
- Growth Percent, MOLT-4 [44]: −2.90%
- Growth Percent, NCI-H322M [45]: 70.75%
- Growth Percent, HOP-62 [46]: 51.96%
- Growth Percent, MDA-MB-231/ATCC [47]: 56.24%
- Growth Percent, SW-620 [48]: 26.35%
- Growth Percent, SK-MEL-28 [49]: 102.07%
- Growth Percent, RXF 393 [50]: 38.40%
- Growth Percent, NCI-H522 [51]: 69.28%
- Growth Percent, UO-31 [52]: 25.50%
